# Results taken from patent publication US20260284051A1, “METHIONINE ADENOSYLTRANSFERASE 2A (MAT2A) INHIBITOR COMBINATIONS AND USES THEREOF” (INSILICO MEDICINE IP LIMITED, priority 2023, published 2026).
# Biological target: MAT2A (Homo sapiens, UniProt P31153)
# Test: MAT2A Biochemical Assay
# Conditions: read-out: MAT2A enzymatic IC50
# Method: Example A: MAT2A Biochemical Assay
# Compounds described herein were tested as follows:
# • (1). Prepared 1×Assay buffer. • (2). Preparation of compound concentration gradient: the compounds test condition were […], 3-fold dilution, 10 doses, singlet or duplicate. 100x concentration compounds were prepared in 384-well plate. Then used Echo 550 to transfer 250 nl to a 384-reaction plate for later use. Added 250 nl of 100% DMSO to the negative and positive control wells. • (3). Prepared 1.67× final concentration enzyme solution with 1×Assay buffer. • (4). Added 15 μl of 1.67× Enzyme solution to the compound wells and positive control wells; added 15 μl of 1×Assay buffer to the negative control wells. • (5). Centrifuged at 1000 rpm for 30 seconds and incubate for 15 minutes. • (6). Prepared 2.5× final concentration Substrate mix solution with 1×Assay buffer. • (7). Added 10 μl of 2.5× final concentration Substrate mix solution to start the reaction. • (8). Centrifuged at 1000 rpm for 30 seconds and incubate for 150 minutes. • (9). Added […] Biomol Green to stop the reaction, centrifuge at 1000 rpm for 30 seconds and incubate for 15 minutes. read O.D.620, process data.
# • (1) Using GraphPad Prism 5.
# [formula] • (3) Max signal was obtained from the positive control wells. • (4) Min signal was obtained from the negative control wells.
# Sequence of MAT2A (P31153 whole entry, species assumed): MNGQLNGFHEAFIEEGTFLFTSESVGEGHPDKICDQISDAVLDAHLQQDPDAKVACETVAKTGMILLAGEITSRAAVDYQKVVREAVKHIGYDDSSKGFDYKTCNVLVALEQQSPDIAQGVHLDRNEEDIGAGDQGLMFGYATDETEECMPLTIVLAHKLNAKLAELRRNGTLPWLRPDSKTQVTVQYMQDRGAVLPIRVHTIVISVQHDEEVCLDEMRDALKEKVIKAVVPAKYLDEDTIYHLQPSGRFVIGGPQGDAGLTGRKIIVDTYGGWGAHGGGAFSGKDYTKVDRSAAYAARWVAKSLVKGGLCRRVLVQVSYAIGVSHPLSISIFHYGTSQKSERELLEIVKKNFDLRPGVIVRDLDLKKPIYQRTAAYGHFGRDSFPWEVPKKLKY
row,SMILES,IC50 [nM]
1,C#CC1(Nc2nc(=O)n(-c3cccnc3)c3cc(Cl)ccc23)CC1 [Example 4],< 50
2,C#CCCCNc1nc(=O)n(-c2cccnc2)c2cc(C(F)(F)F)ccc12 [Example 6],< 50
3,C#CCNc1nc(=O)n(-c2cccnc2)c2cc(C(F)(F)F)ccc12 [Example 7],< 50
4,C#CCNc1nc(=O)n(-c2ccccc2Cl)c2cc(Cl)ccc12 [Example 10],< 50
5,C#CCNc1nc(=O)n(-c2cccnc2C)c2cc(Cl)ccc12 [Example 15],< 50
6,C#CC1(Nc2nc(=O)n(-c3cccnc3C)c3cc(Cl)ccc23)CC1 [Example 16],< 50
7,C#CCNc1nc(=O)n(-c2cnccn2)c2cc(Cl)ccc12 [Example 17],< 50
8,C#CCNc1nc(=O)n(-c2cccnc2)c2cc(Br)ccc12 [Example 18],< 50
9,C#CCNc1nc(=O)n(-c2cccnc2C)c2cc(Br)cc(OC)c12 [Example 19],< 50
10,C#CC1(Nc2nc(=O)n(-c3cnccn3)c3cc(Cl)cc(OC)c23)CC1 [Example 24],< 50
11,C#CC1(Nc2nc(=O)n(-c3nccnc3C)c3cc(Cl)cc(OC)c23)CC1 [Example 25],< 50
12,C#CC(C)Nc1nc(=O)n(-c2cccnc2C)c2cc(Cl)cc(OC)c12 (stereo not drawn) [Example 26],< 50
13,C#CC1(Nc2nc(=O)n(-c3cccnc3C)c3cc(Cl)cc(OC)c23)CC1 [Example 27],< 50
14,C#CC1(Nc2nc(=O)n(-c3cccnc3C)c3cc(Cl)cc(OC)c23)CCC1 [Example 28],< 50
15,C#CCNc1nc(=O)n(-c2cccnc2)c2cc(Cl)cc(F)c12 [Example 29],< 50
16,C#CC(C)Nc1nc(=O)n(-c2cccnc2)c2cc(C(F)(F)F)cc(OC)c12 (stereo not drawn) [Example 35],< 50
17,C#CCNc1nc(=O)n(-c2cccnc2)c2cc(C(F)(F)F)cc(OCF)c12 [Example 38],< 50
18,C#CCNc1nc(=O)n(-c2cccnc2C)c2nc(C(F)(F)F)cc(OC)c12 [Example 42],< 50
19,C#CC1(Nc2nc(=O)n(-c3cccnc3C)c3cc(C(F)(F)F)ccc23)CC1 [Example 46],< 50
20,C#CC1(Nc2nc(=O)n(-c3cccnc3)c3cc(C(F)(F)F)cc(OC)c23)CC1 [Example 47],< 50

# Results, then the compound that gave them:
row,IC50 [nM],SMILES
1,< 50,C#CCNc1nc(=O)n(-c2cccnc2)c2cc(Cl)ccc12 [Example 1]
2,< 50,O=c1nc(NCC#CC2CC2)c2ccc(Cl)cc2n1-c1cccnc1 [Example 2]
3,< 50,C#CCCNc1nc(=O)n(-c2ccccc2Cl)c2cc(Cl)ccc12 [Example 8]
4,> 1000,C#CC1CCN(c2nc(=O)n(-c3ccccc3Cl)c3cc(Cl)ccc23)CC1 [Example 13]
5,< 50,O=c1nc(NCC#CCN2CCOCC2)c2ccc(C(F)(F)F)cc2n1-c1cccnc1 [Example 14]
6,< 50,C#CCNc1nc(=O)n(-c2cccnc2)c2cc(Cl)cc(OC)c12 [Example 20]
7,< 50,C#CCNc1nc(=O)n(-c2cnccn2)c2cc(Cl)cc(OC)c12 [Example 21]
8,< 50,C#CCNc1nc(=O)n(-c2cccnc2C)c2cc(Cl)cc(OC)c12 [Example 22]
9,< 50,C#CCNc1nc(=O)n(-c2nccnc2C)c2cc(Cl)cc(OC)c12 [Example 23]
10,< 50,C#CCNc1nc(=O)n(-c2cccnc2C)c2cc(Cl)cc(F)c12 [Example 30]
11,< 50,C#CC1(Nc2nc(=O)n(-c3cccnc3C)c3cc(Cl)cc(F)c23)CC1 [Example 31]
12,< 50,C#CCNc1nc(=O)n(-c2cccnc2C)c2cc(C(F)(F)F)ccc12 [Example 33]
13,< 50,C#CCNc1nc(=O)n(-c2cccnc2)c2cc(C(F)(F)F)cc(OC)c12 [Example 34]
14,< 50,C#CC(C)Nc1nc(=O)n(-c2cccnc2C)c2cc(C(F)(F)F)cc(OC)c12 (stereo not drawn) [Example 37]
15,< 50,C#CCNc1nc(=O)n(-c2cccnc2C)c2cc(C(F)(F)F)cc(OC(F)F)c12 [Example 40]
16,< 50,C#CCNc1nc(=O)n(-c2cccnc2C(C)C)c2cc(C(F)(F)F)ccc12 [Example 45]
